The numbers were not newly measured in patent US20030104981A1 (priority 1995, published 2003), which cites them from elsewhere.

One data set relates to LB lymphoma cell. Particulars: cited from earlier work.
The subject of the next data set is LB and IM-9. Particulars: cited from earlier work.
For data set [1] the following is noted: poster presentation, 1992; cited from earlier work.
The next data set deals with IDE (Homo sapiens, UniProt P14735). Particulars: cited from earlier work.
For data set [2] the following is noted: assumed; cited from earlier work.

On to “A8 His B10 Glu B27 His (code name H2) insulin [Radoyka H2]”, for which the “mitogenic potency (literature)” value with LB lymphoma cell is “most potent mitogen”. For the same substance, the “binding to LB and IM-9” value with LB and IM-9 is recorded as “bound essentially irreversibly”.

Consider “B10 Asp insulin: B10 His replaced by Asp in native insulin”, for which the mitogenic effect entry in data set [1] is reported as “significantly increased mitogenic effect”. With “rat insulin analogue at B16 Tyr→Asp replacement: engineered rat insulin analogue at B16 Tyr→Asp replacement (group in Geneva)”, the “susceptibility to cleavage by IDE” value with IDE is “unchanged susceptibility to cleavage by IDE”.

As for “des-(B26-B30)-[Glu-B^10; Tyr-B^25—NH2] insulin analogue”, the “activity, times more active than native insulin” value in data set [2] is on record as “at least 20 times”.
